These results are taken from patent publication US10259810B2, “N-sulfonylated pyrazolo[3,4-b]pyridin-6-carboxamides and method of use” (AbbVie S.à.r.l., priority 2015, dated 2019).

The structures appear in SMILES notation.

The target in test [1] is T1, ΔF508-CFTR (Homo sapiens, UniProt P13569, DEL508-508).
T1 construct: host or cells: CFBE41o-, doxycycline-inducible
As to the kind of experiment: CFTR cell surface levels using HRP-tagged ΔF508-CFTR expressing CFBE cells, intrinsic corrector capacity. It counts as cell-based. On the set-up: % Activation: concentration or dose not given beside the values. The conditions noted are these: HRP-tagged ΔF508-CFTR expressing CFBE41o- cells, compound alone (intrinsic corrector capacity), 20 hours at 33° C.; for EC50: read-out: EC50. The gist of the method: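 Read-out: chemiluminescent HRP activity of ECL4-HRP-tagged ΔF508-CFTR at the cell surface, 15 min substrate in dark. Normalized as 100×(sample−DMSO)/(positive control−DMSO).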

Test [2] concerns the target T1, ΔF508-CFTR. The experiment in a line: CFTR cell surface levels using HRP-tagged ΔF508-CFTR expressing CFBE cells, in the presence of a co-corrector. The test is classed as cell-based. The conditions noted are these: HRP-tagged ΔF508-CFTR CFBE cells, in the presence of 3 μM co-corrector; for EC50: read-out: EC50. In short, it runs like this: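 Chemiluminescent read-out of surface HRP (15 min, dark) after PBS washes. Activity is normalized as 100×(sample−DMSO)/(3 μM co-corrector alone−DMSO).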

T1 sequence (P13569 with tags, fused parts or gaps DEL508-508): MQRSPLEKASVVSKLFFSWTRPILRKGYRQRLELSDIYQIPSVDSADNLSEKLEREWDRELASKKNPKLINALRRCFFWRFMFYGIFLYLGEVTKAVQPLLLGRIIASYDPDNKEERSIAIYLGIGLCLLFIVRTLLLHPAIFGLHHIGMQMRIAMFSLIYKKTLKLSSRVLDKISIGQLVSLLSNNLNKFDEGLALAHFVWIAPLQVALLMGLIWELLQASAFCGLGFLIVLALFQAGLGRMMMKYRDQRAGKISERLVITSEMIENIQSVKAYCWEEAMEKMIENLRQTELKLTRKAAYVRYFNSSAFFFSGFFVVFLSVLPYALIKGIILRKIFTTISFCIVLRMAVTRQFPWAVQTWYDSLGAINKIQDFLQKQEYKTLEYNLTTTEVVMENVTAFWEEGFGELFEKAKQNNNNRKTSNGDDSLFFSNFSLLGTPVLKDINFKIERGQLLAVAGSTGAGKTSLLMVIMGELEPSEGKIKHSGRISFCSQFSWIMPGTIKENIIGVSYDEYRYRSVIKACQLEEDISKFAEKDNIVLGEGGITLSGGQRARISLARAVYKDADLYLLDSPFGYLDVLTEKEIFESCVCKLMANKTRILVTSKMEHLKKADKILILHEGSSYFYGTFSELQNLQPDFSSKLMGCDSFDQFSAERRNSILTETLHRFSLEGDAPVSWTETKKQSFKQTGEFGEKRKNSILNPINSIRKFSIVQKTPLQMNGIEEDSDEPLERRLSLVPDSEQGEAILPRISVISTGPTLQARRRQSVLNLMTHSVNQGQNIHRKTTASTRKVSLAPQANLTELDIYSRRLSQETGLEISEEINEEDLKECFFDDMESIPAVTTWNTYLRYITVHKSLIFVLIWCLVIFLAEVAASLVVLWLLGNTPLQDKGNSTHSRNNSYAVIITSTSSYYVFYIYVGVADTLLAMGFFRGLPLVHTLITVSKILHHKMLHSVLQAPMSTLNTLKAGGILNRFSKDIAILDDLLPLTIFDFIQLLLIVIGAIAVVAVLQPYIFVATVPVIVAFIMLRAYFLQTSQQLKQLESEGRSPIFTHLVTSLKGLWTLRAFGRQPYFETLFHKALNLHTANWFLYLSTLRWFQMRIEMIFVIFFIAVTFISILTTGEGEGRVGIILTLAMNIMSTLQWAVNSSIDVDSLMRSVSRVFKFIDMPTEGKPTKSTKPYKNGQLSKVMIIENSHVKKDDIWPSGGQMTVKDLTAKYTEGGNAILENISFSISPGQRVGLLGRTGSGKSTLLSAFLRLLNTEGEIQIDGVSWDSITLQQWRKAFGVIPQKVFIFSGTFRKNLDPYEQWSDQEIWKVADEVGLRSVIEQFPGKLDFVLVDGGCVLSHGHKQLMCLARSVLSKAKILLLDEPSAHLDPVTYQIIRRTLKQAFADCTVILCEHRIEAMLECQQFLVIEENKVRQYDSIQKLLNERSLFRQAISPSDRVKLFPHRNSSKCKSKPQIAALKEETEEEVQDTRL

For `CCS(=O)(=O)NC(=O)c1cc(-c2ccc(N(C)C)nc2)c2c(C(C)C)nn(C3CCCC3)c2n1` [Compound 56, 1-cyclopentyl-4-[6-(dimethylamino)pyridin-3-yl]-N-(ethanesulfonyl)-3-(propan-2-yl)-1H-pyrazolo[3,4-b]pyridine-6-carboxamide], on ΔF508-CFTR [1], the “% Activation” value was found to be 122.1% and the EC50 was 1180 nM. Moreover, on ΔF508-CFTR [2], the “% Activation” value was found to be 336.75% and the EC50 stood at 838 nM.

Regarding `Cc1nn(-c2cccc(C(F)(F)F)c2)c2nc(C(=O)NS(C)(=O)=O)cc(-c3ccc(N4CCOCC4)nc3)c12` [Compound 57, N-(methanesulfonyl)-3-methyl-4-[6-(morpholin-4-yl)pyridin-3-yl]-1-[3-(trifluoromethyl)phenyl]-1H-pyrazolo[3,4-b]pyridine-6-carboxamide], on ΔF508-CFTR [1], the “% Activation” value came out at 219.65% and the EC50 stood at 1020 nM. In addition, on ΔF508-CFTR [2], the “% Activation” value is reported as 440% and the EC50 was determined as 657 nM.

As for `CCS(=O)(=O)NC(=O)c1cc(-c2ccc(N3CCOCC3)nc2)c2c(C)nn(-c3cccc(C(F)(F)F)c3)c2n1` [Compound 58, N-(ethanesulfonyl)-3-methyl-4-[6-(morpholin-4-yl)pyridin-3-yl]-1-[3-(trifluoromethyl)phenyl]-1H-pyrazolo[3,4-b]pyridine-6-carboxamide], at ΔF508-CFTR [1], the “% Activation” value was found to be 196.2% and the EC50 was found to be 756 nM. Also, on ΔF508-CFTR [2], the “% Activation” value worked out at 352.5% and the EC50 was found to be 422 nM.

As for `CC(C)c1nn(-c2cccc(N(C)C)c2)c2nc(C(=O)NS(C)(=O)=O)cc(-c3cnc(N4CCOCC4)nc3)c12` [Compound 59, 1-[3-(dimethylamino)phenyl]-N-(methanesulfonyl)-4-[2-(morpholin-4-yl)pyrimidin-5-yl]-3-(propan-2-yl)-1H-pyrazolo[3,4-b]pyridine-6-carboxamide], the “% Activation” value is listed as 317.3% on ΔF508-CFTR [1] and 534.8% on ΔF508-CFTR [2]. Further, the EC50 on ΔF508-CFTR [1] is 777 nM; on ΔF508-CFTR [2] it was 482 nM.

On to `Cc1nn(-c2ccc(F)cc2F)c2nc(C(=O)NS(C)(=O)=O)cc(-c3ccc(N4CCOCC4)nc3)c12` [Compound 60, 1-(2,4-difluorophenyl)-N-(methanesulfonyl)-3-methyl-4-[6-(morpholin-4-yl)pyridin-3-yl]-1H-pyrazolo[3,4-b]pyridine-6-carboxamide], for which the “% Activation” value at ΔF508-CFTR [1] came out at 160.43%; on ΔF508-CFTR [2], 323.63%. Further, the EC50 on ΔF508-CFTR [1] stood at 394 nM; at ΔF508-CFTR [2] it was 351 nM.

`CCS(=O)(=O)NC(=O)c1cc(-c2ccc(N3CCOCC3)nc2)c2c(C)nn(-c3ccc(F)cc3F)c2n1` [Compound 61, 1-(2,4-difluorophenyl)-N-(ethanesulfonyl)-3-methyl-4-[6-(morpholin-4-yl)pyridin-3-yl]-1H-pyrazolo[3,4-b]pyridine-6-carboxamide]: at ΔF508-CFTR [1], the “% Activation” value was 184.35% and the EC50 is 1000 nM. Besides, on ΔF508-CFTR [2], the “% Activation” value is listed as 415.3% and the EC50 amounted to 506 nM.

`CCS(=O)(=O)NC(=O)c1cc(-c2cnc(N3CCOCC3)nc2)c2c(C(C)C)nn(-c3cccc(N(C)C)c3)c2n1` [Compound 62, 1-[3-(dimethylamino)phenyl]-N-(ethanesulfonyl)-4-[2-(morpholin-4-yl)pyrimidin-5-yl]-3-(propan-2-yl)-1H-pyrazolo[3,4-b]pyridine-6-carboxamide]: on ΔF508-CFTR [1], the “% Activation” value is listed as 350.85% and the EC50 turned out to be 596 nM. Besides, at ΔF508-CFTR [2], the “% Activation” value is recorded as 631.2% and the EC50 was 532 nM.

As to `CC(C)c1nn(C2CCCCC2)c2nc(C(=O)NS(C)(=O)=O)cc(-c3ccc(N4CCC(F)(F)C4)nc3)c12` [Compound 64, 1-cyclohexyl-4-[6-(3,3-difluoropyrrolidin-1-yl)pyridin-3-yl]-N-(methanesulfonyl)-3-(propan-2-yl)-1H-pyrazolo[3,4-b]pyridine-6-carboxamide], at ΔF508-CFTR [1], the “% Activation” value worked out at 152.75% and the EC50 came out at 935 nM. Also, on ΔF508-CFTR [2], the “% Activation” value was determined as 362.45% and the EC50 amounted to 444 nM.

On to `Cc1nn(-c2cccc(Cl)c2)c2nc(C(=O)NS(C)(=O)=O)cc(-c3ccc(N4CCOCC4)cc3)c12` [Compound 65, 1-(3-chlorophenyl)-N-(methanesulfonyl)-3-methyl-4-[4-(morpholin-4-yl)phenyl]-1H-pyrazolo[3,4-b]pyridine-6-carboxamide], for which, at ΔF508-CFTR [1], the “% Activation” value was determined as 162.33% and the EC50 turned out to be 1530 nM. For the same molecule, on ΔF508-CFTR [2], the “% Activation” value is 332.05% and the EC50 was 464 nM.

For `CCS(=O)(=O)NC(=O)c1cc(-c2ccc(N3CCOCC3)cc2)c2c(C)nn(-c3cccc(Cl)c3)c2n1` [Compound 66, 1-(3-chlorophenyl)-N-(ethanesulfonyl)-3-methyl-4-[4-(morpholin-4-yl)phenyl]-1H-pyrazolo[3,4-b]pyridine-6-carboxamide], at ΔF508-CFTR [1], the “% Activation” value was determined as 142.65% and the EC50 was found to be 1860 nM. For the same molecule, at ΔF508-CFTR [2], the “% Activation” value is 332.85% and the EC50 was 6670 nM.

As to `Cc1nn(-c2cccc(F)c2)c2nc(C(=O)NS(C)(=O)=O)cc(-c3ccc(N4CCOCC4)cc3)c12` [Compound 67, 1-(3-fluorophenyl)-N-(methanesulfonyl)-3-methyl-4-[4-(morpholin-4-yl)phenyl]-1H-pyrazolo[3,4-b]pyridine-6-carboxamide], at ΔF508-CFTR [1], the “% Activation” value came to 181.96% and the EC50 came out at 362 nM. Besides, at ΔF508-CFTR [2], the “% Activation” value was found to be 371.62% and the EC50 was found to be 241 nM.

Regarding `CCS(=O)(=O)NC(=O)c1cc(-c2ccc(N3CCOCC3)cc2)c2c(C)nn(-c3cccc(F)c3)c2n1` [Compound 68, N-(ethanesulfonyl)-1-(3-fluorophenyl)-3-methyl-4-[4-(morpholin-4-yl)phenyl]-1H-pyrazolo[3,4-b]pyridine-6-carboxamide], at ΔF508-CFTR [1], the “% Activation” value is 253.3% and the EC50 is 1080 nM. Moreover, on ΔF508-CFTR [2], the “% Activation” value was found to be 456.6% and the EC50 stood at 847 nM.

Turning to `Cc1nn(-c2ccc(OC(F)(F)F)cc2)c2nc(C(=O)NS(C)(=O)=O)cc(-c3ccc(N4CCOCC4)cc3)c12` [Compound 69, N-(methanesulfonyl)-3-methyl-4-[4-(morpholin-4-yl)phenyl]-1-[4-(trifluoromethoxy)phenyl]-1H-pyrazolo[3,4-b]pyridine-6-carboxamide], on ΔF508-CFTR [1], the “% Activation” value was determined as 182.08% and the EC50 was 632 nM. Also, on ΔF508-CFTR [2], the “% Activation” value was found to be 362.03% and the EC50 stood at 404 nM.

For `CCS(=O)(=O)NC(=O)c1cc(-c2ccc(N3CCOCC3)cc2)c2c(C)nn(-c3ccc(OC(F)(F)F)cc3)c2n1` [Compound 70, N-(ethanesulfonyl)-3-methyl-4-[4-(morpholin-4-yl)phenyl]-1-[4-(trifluoromethoxy)phenyl]-1H-pyrazolo[3,4-b]pyridine-6-carboxamide], the results for the “% Activation” value on ΔF508-CFTR [1] and at ΔF508-CFTR [2] were 167.8% and 342.85%, respectively. For the same molecule, the EC50 came out at 621 nM on ΔF508-CFTR [1] and 410 nM at ΔF508-CFTR [2].

Take `COc1cccc(-n2nc(C)c3c(-c4ccc(N5CCOCC5)cc4)cc(C(=O)NS(C)(=O)=O)nc32)c1` [Compound 72, N-(methanesulfonyl)-1-(3-methoxyphenyl)-3-methyl-4-[4-(morpholin-4-yl)phenyl]-1H-pyrazolo[3,4-b]pyridine-6-carboxamide]: the “% Activation” value on ΔF508-CFTR [1] turned out to be 232.5%; on ΔF508-CFTR [2], 400.9%. The values for the EC50 at ΔF508-CFTR [1] and on ΔF508-CFTR [2] were 2230 nM and 5610 nM, respectively.

With `CCS(=O)(=O)NC(=O)c1cc(-c2ccc(N3CCOCC3)cc2)c2c(C)nn(-c3cccc(OC)c3)c2n1` [Compound 73, N-(ethanesulfonyl)-1-(3-methoxyphenyl)-3-methyl-4-[4-(morpholin-4-yl)phenyl]-1H-pyrazolo[3,4-b]pyridine-6-carboxamide], the results for the “% Activation” value on ΔF508-CFTR [1] and on ΔF508-CFTR [2] were 254.1% and 423.35%, respectively. Besides, the figures for the EC50 on ΔF508-CFTR [1] and on ΔF508-CFTR [2] were 657 nM and 490 nM, respectively.

As for `COCCN(C)c1cccc(-n2nc(C(C)C)c3c(-c4ccc(N5CCOCC5)cc4)cc(C(=O)NS(C)(=O)=O)nc32)c1` [Compound 76, N-(methanesulfonyl)-1-{3-[(2-methoxyethyl)(methyl)amino]phenyl}-4-[4-(morpholin-4-yl)phenyl]-3-(propan-2-yl)-1H-pyrazolo[3,4-b]pyridine-6-carboxamide], on ΔF508-CFTR [1], the “% Activation” value is 430.87% and the EC50 is 528 nM. Moreover, at ΔF508-CFTR [2], the “% Activation” value came to 581.37% and the EC50 turned out to be 633 nM.

Take `CC(C)c1nn(-c2cccc(N(C)C)c2)c2nc(C(=O)NS(C)(=O)=O)cc(-c3cnc(N(C)C)nc3)c12` [Compound 77, 1-[3-(dimethylamino)phenyl]-4-[2-(dimethylamino)pyrimidin-5-yl]-N-(methanesulfonyl)-3-(propan-2-yl)-1H-pyrazolo[3,4-b]pyridine-6-carboxamide]: on ΔF508-CFTR [1], the “% Activation” value is listed as 296.45% and the EC50 was determined as 639 nM. Also, on ΔF508-CFTR [2], the “% Activation” value is on record as 449.85% and the EC50 was 831 nM.

In the case of `CCS(=O)(=O)NC(=O)c1cc(-c2cnc(N(C)C)nc2)c2c(C(C)C)nn(-c3cccc(N(C)C)c3)c2n1` [Compound 78, 1-[3-(dimethylamino)phenyl]-4-[2-(dimethylamino)pyrimidin-5-yl]-N-(ethanesulfonyl)-3-(propan-2-yl)-1H-pyrazolo[3,4-b]pyridine-6-carboxamide], at ΔF508-CFTR [1], the “% Activation” value came out at 333.2% and the EC50 amounted to 1880 nM. Further, at ΔF508-CFTR [2], the “% Activation” value stood at 520.7% and the EC50 came to 660 nM.
